System: MV-4-11 cells
Test: Gene expression microarray analysis (Affymetrix PrimeView) and GSEA
Assay type: cell-based, human
Set-up: RFU PODN (11730768_x_at) / Fold change /veh PODN (11730768_x_at) / RFU LINC00158 (11744669_a_at) / Fold change /veh LINC00158 (11744669_a_at) / RFU DUSP10 (11751237_a_at) / Fold change /veh DUSP10 (11751237_a_at) / RFU ID3 (11757404_x_at) / Fold change /veh ID3 (11757404_x_at) / RFU PLEKHG5 (11737974_s_at) / Fold change /veh PLEKHG5 (11737974_s_at) / RFU LRRC4B (11730491_at) / Fold change /veh LRRC4B (11730491_at) / RFU GIMAP4 (11747438_a_at) / Fold change /veh GIMAP4 (11747438_a_at) / RFU KRT8 (11758183_x_at) / Fold change /veh KRT8 (11758183_x_at) / RFU CNN1 (11734310_a_at) / Fold change /veh CNN1 (11734310_a_at) / RFU VPS37D (11726825_at) / Fold change /veh VPS37D (11726825_at) / RFU C10orf10 (11716522_x_at) / Fold change /veh C10orf10 (11716522_x_at) / RFU KIR2DL2 /// KIR2DL4 /// KIR2DL5A /// KIR2DL5B /// KIR2DS1 /// KIR2DS2 /// KIR2DS3 /// KIR2DS4 /// KIR3DL3 /// KIR3DL3 /// KIR3DS1 (11738374_at) / Fold change /veh KIR2DL2 /// KIR2DL4 /// KIR2DL5A /// KIR2DL5B /// KIR2DS1 /// KIR2DS2 /// KIR2DS3 /// KIR2DS4 /// KIR3DL3 /// KIR3DL3 /// KIR3DS1 (11738374_at) / RFU C1QL1 (11718748_at) / Fold change /veh C1QL1 (11718748_at) / RFU TMPRSS4 (11747572_a_at) / Fold change /veh TMPRSS4 (11747572_a_at) / RFU HAMP (11756126_x_at) / Fold change /veh HAMP (11756126_x_at) / RFU RNFT2 (11725882_a_at) / Fold change /veh RNFT2 (11725882_a_at) / RFU NR4A2 (11747474_a_at) / Fold change /veh NR4A2 (11747474_a_at) / RFU ABCC12 (11746883_a_at) / Fold change /veh ABCC12 (11746883_a_at) / RFU TMEM136 (11760407_x_at) / Fold change /veh TMEM136 (11760407_x_at) / RFU CLDN22 /// WWC2 (11732394_at) / Fold change /veh CLDN22 /// WWC2 (11732394_at) / RFU HLA-DPB1 (11760878_x_at) / Fold change /veh HLA-DPB1 (11760878_x_at) / RFU SPINT1 (11716480_a_at) / Fold change /veh SPINT1 (11716480_a_at) / RFU GAP43 (11754022_s_at) / Fold change /veh GAP43 (11754022_s_at) / RFU A4GNT (11735810_at) / Fold change /veh A4GNT (11735810_at) / RFU PRB3 (11715151_x_at) / Fold change /veh PRB3 (11715151_x_at) / RFU TUBB4B (11761932_at) / Fold change /veh TUBB4B (11761932_at) / RFU CAPN14 (11732068_a_at) / Fold change /veh CAPN14 (11732068_a_at) / RFU TMCC2 (11721928_a_at) / Fold change /veh TMCC2 (11721928_a_at) / RFU IRGQ (11745062_a_at) / Fold change /veh IRGQ (11745062_a_at) / RFU FAM174B (11720279_a_at) / Fold change /veh FAM174B (11720279_a_at) / RFU TMPRSS4 (11748680_a_at) / Fold change /veh TMPRSS4 (11748680_a_at) / RFU FAM212B (11763350_a_at) / Fold change /veh FAM212B (11763350_a_at) / RFU PLEKHG5 (11743358_a_at) / Fold change /veh PLEKHG5 (11743358_a_at) / RFU ZSCAN30 (11745921_a_at) / Fold change /veh ZSCAN30 (11745921_a_at) / RFU CMKLR1 (11741424_a_at) / Fold change /veh CMKLR1 (11741424_a_at) / RFU LOC101060620 /// MAPK8IP1 (11723275_at) / Fold change /veh LOC101060620 /// MAPK8IP1 (11723275_at) / RFU SPTSSB (11747773_x_at) / Fold change /veh SPTSSB (11747773_x_at) / RFU PRSS12 (11739890_at) / Fold change /veh PRSS12 (11739890_at) / RFU BIN1 (11741810_x_at) / Fold change /veh BIN1 (11741810_x_at) / RFU WNT11 (11732464_a_at) / Fold change /veh WNT11 (11732464_a_at) / RFU C10orf10 (11716521_a_at) / Fold change /veh C10orf10 (11716521_a_at) / RFU C5orf56 (11738089_at) / Fold change /veh C5orf56 (11738089_at) / RFU CYB561 (11721691_x_at) / Fold change /veh CYB561 (11721691_x_at) / RFU ANKRD19P (11752326_a_at) / Fold change /veh ANKRD19P (11752326_a_at) / RFU OR2T12 /// OR2T33 /// OR2T8 (11738714_s_at) / Fold change /veh OR2T12 /// OR2T33 /// OR2T8 (11738714_s_at) / RFU VCAN (11748164_a_at) / Fold change /veh VCAN (11748164_a_at) / RFU JSRP1 (11732532_at) / Fold change /veh JSRP1 (11732532_at) / RFU KRTAP10-11 (11738290_x_at) / Fold change /veh KRTAP10-11 (11738290_x_at) / RFU MYO3A (11730013_a_at) / Fold change /veh MYO3A (11730013_a_at) / RFU EBF3 (11725865_a_at) / Fold change /veh EBF3 (11725865_a_at) / RFU CAMK2N1 (11719241_x_at) / Fold change /veh CAMK2N1 (11719241_x_at) / RFU C5orf56 (11738088_a_at) / Fold change /veh C5orf56 (11738088_a_at) / RFU OLFML3 (11715873_a_at) / Fold change /veh OLFML3 (11715873_a_at) / RFU LOC100653217 /// NTM (11731650_a_at) / Fold change /veh LOC100653217 /// NTM (11731650_a_at) / RFU MAPK11 (11762145_a_at) / Fold change /veh MAPK11 (11762145_a_at) / RFU FIZ1 (11724087_x_at) / Fold change /veh FIZ1 (11724087_x_at) / RFU OASL (11726364_x_at) / Fold change /veh OASL (11726364_x_at) / RFU SOX15 (11748057_x_at) / Fold change /veh SOX15 (11748057_x_at) / RFU CD79A (11719716_a_at) / Fold change /veh CD79A (11719716_a_at) / RFU HIST1H1D (11736915_at) / Fold change /veh HIST1H1D (11736915_at) / RFU CASKIN2 (11723855_a_at) / Fold change /veh CASKIN2 (11723855_a_at) / RFU LOC730098 (11760151_x_at) / Fold change /veh LOC730098 (11760151_x_at) / RFU OR4N2 (11742367_at) / Fold change /veh OR4N2 (11742367_at) / RFU PRRT2 (11749266_a_at) / Fold change /veh PRRT2 (11749266_a_at) / RFU SNX32 (11753110_a_at) / Fold change /veh SNX32 (11753110_a_at) / RFU CDHR5 (11726645_a_at) / Fold change /veh CDHR5 (11726645_a_at) / RFU RCAN1 (11760418_a_at) / Fold change /veh RCAN1 (11760418_a_at) / RFU FAM167A (11723789_a_at) / Fold change /veh FAM167A (11723789_a_at) / RFU FAM26E (11764081_at) / Fold change /veh FAM26E (11764081_at) / RFU ISYNA1 (11749810_s_at) / Fold change /veh ISYNA1 (11749810_s_at) / RFU ACY1 (11761880_at) / Fold change /veh ACY1 (11761880_at) / RFU 11764098_at / Fold change /veh 11764098_at / RFU SAMD14 (11745864_x_at) / Fold change /veh SAMD14 (11745864_x_at) / RFU NPB (11741838_a_at) / Fold change /veh NPB (11741838_a_at) / RFU TMPRSS6 (11731388_a_at) / Fold change /veh TMPRSS6 (11731388_a_at) / RFU KRTAP10-2 (11738614_at) / Fold change /veh KRTAP10-2 (11738614_at) / RFU ARHGAP8 /// PRR5-ARHGAP8 (11727945_x_at) / Fold change /veh ARHGAP8 /// PRR5-ARHGAP8 (11727945_x_at) / RFU KRTAP5-7 /// NADSYN1 (11734609_at) / Fold change /veh KRTAP5-7 /// NADSYN1 (11734609_at) / RFU RASL12 (11751679_a_at) / Fold change /veh RASL12 (11751679_a_at) / RFU CDKN2B (11736163_a_at) / Fold change /veh CDKN2B (11736163_a_at) / RFU PRF1 (11729649_at) / Fold change /veh PRF1 (11729649_at) / RFU, ZNF638 /// ZNF638-IT1 / Fold change vs veh, ZNF638 /// ZNF638-IT1 / RFU, PANK3 / Fold change vs veh, PANK3 / RFU, SH3YL1 / Fold change vs veh, SH3YL1 / RFU, ZEB2 / Fold change vs veh, ZEB2 / RFU, NRIP1 / Fold change vs veh, NRIP1 / RFU, PTTG1IP / Fold change vs veh, PTTG1IP / RFU, CAPN2 / Fold change vs veh, CAPN2 / RFU, MED14 / Fold change vs veh, MED14 / RFU, SNORA58 / Fold change vs veh, SNORA58 / RFU, C1orf63 / Fold change vs veh, C1orf63 / RFU, LRRFIP1 / Fold change vs veh, LRRFIP1 / RFU, NDUFAF7 / Fold change vs veh, NDUFAF7 / RFU, SLC12A2 / Fold change vs veh, SLC12A2 / RFU, IBTK / Fold change vs veh, IBTK / RFU, ESF1 / Fold change vs veh, ESF1 / Fold change vs veh, TMEM50B / RFU, TAOK1 / Fold change vs veh, TAOK1 / RFU, ACBD3 / Fold change vs veh, ACBD3 / RFU, TMA16 / Fold change vs veh, TMA16 / RFU, RWDD3 / Fold change vs veh, RWDD3 / RFU, BCAT1 / Fold change vs veh, BCAT1 / RFU, EDEM3 / Fold change vs veh, EDEM3 / RFU, TMEM33 / Fold change vs veh, TMEM33 / RFU, WDR75 / Fold change vs veh, WDR75 / RFU, AHCTF1 / Fold change vs veh, AHCTF1 / RFU, TFRC / Fold change vs veh, TFRC / RFU, ZDHHC17 / Fold change vs veh, ZDHHC17 / RFU, NOM1 / Fold change vs veh, NOM1 / RFU, ARL8B / Fold change vs veh, ARL8B / RFU, ZBTB11 / Fold change vs veh, ZBTB11 / RFU, TAMM41 / Fold change vs veh, TAMM41 / RFU, KIAA1704 /// LOC100996395 / Fold change vs veh, KIAA1704 /// LOC100996395 / RFU, ING1 / Fold change vs veh, ING1 / RFU, TRMT61B / Fold change vs veh, TRMT61B / RFU, FUBP3 / Fold change vs veh, FUBP3 / RFU, TP53 / Fold change vs veh, TP53 / RFU, TNKS2 / Fold change vs veh, TNKS2 / RFU, ZFP14 / Fold change vs veh, ZFP14 / RFU, ACTR2 / Fold change vs veh, ACTR2 / RFU, PPP3R1 / Fold change vs veh, PPP3R1 / RFU, PIK3R1 / Fold change vs veh, PIK3R1 / RFU, HNRNPA1 / Fold change vs veh, HNRNPA1 / RFU, RNF170 / Fold change vs veh, RNF170 / RFU, ZNF28 / Fold change vs veh, ZNF28 / RFU, RNGTT / Fold change vs veh, RNGTT / RFU, OGT / Fold change vs veh, OGT / RFU, BRD1 / Fold change vs veh, BRD1 / RFU, MARS / Fold change vs veh, MARS / RFU, ZNF655 / Fold change vs veh, ZNF655 / RFU, FAHD1 / Fold change vs veh, FAHD1 / RFU, BDP1 / Fold change vs veh, BDP1 / RFU, LRRCC1 / Fold change vs veh, LRRCC1 / RFU, ARID1A / Fold change vs veh, ARID1A / RFU, ZNF146 / Fold change vs veh, ZNF146 / RFU, ZNF330 / Fold change vs veh, ZNF330 / RFU, GPN3 / Fold change vs veh, GPN3 / RFU, C9orf123 / Fold change vs veh, C9orf123 / RFU, N4BP2L2 / Fold change vs veh, N4BP2L2 / RFU, ARFIP1 / Fold change vs veh, ARFIP1 / RFU, FAM179B / Fold change vs veh, FAM179B / RFU, BCL10 / Fold change vs veh, BCL10 / RFU, UHRF1BP1L / Fold change vs veh, UHRF1BP1L / RFU, BET1 / Fold change vs veh, BET1 / RFU, CNOT2 / Fold change vs veh, CNOT2 / RFU, ZNF268 / Fold change vs veh, ZNF268 / Fold change vs veh, ZNF507 / RFU, DGCR2 / Fold change vs veh, DGCR2 / RFU, WDSUB1 / Fold change vs veh, WDSUB1 / Fold change vs veh, HSP90B1 /// MIR3652 / RFU, ADSS / Fold change vs veh, ADSS / RFU, GK / Fold change vs veh, GK / RFU, ZNF148 / Fold change vs veh, ZNF148 / RFU, TAF9 / Fold change vs veh, TAF9 / RFU, SLC1A5 / Fold change vs veh, SLC1A5 / RFU, SLMO2 / Fold change vs veh, SLMO2 / RFU, ABCC4 / Fold change vs veh, ABCC4 / RFU, LOC101060439 /// RAP1B / Fold change vs veh, LOC101060439 /// RAP1B / RFU, RFX7 / Fold change vs veh, RFX7 / RFU, GTPBP10 / Fold change vs veh, GTPBP10 / RFU, CNEP1R1 / Fold change vs veh, CNEP1R1 / RFU, BIVM-ERCC5 /// ERCC5 / Fold change vs veh, BIVM-ERCC5 /// ERCC5 / RFU, ILF3 / Fold change vs veh, ILF3 / RFU 11762660_at / Fold change /veh 11762660_at / RFU VCAN (11757783_s_at) / Fold change /veh VCAN (11757783_s_at) / RFU DDX43 (11728927_at) / Fold change /veh DDX43 (11728927_at) / RFU KRT8 (11758188_x_at) / Fold change /veh KRT8 (11758188_x_at) / RFU NKD1 (11759106_at) / Fold change /veh NKD1 (11759106_at) / RFU SRD5A1 (11742802_a_at) / Fold change /veh SRD5A1 (11742802_a_at) / RFU TPSAB1 /// TPSB2 (11721975_s_at) / Fold change /veh TPSAB1 /// TPSB2 (11721975_s_at) / RFU GSTM3 (11746129_a_at) / Fold change /veh GSTM3 (11746129_a_at) / RFU IL23R (11737362_x_at) / Fold change /veh IL23R (11737362_x_at) / RFU TMEM51 (11727254_a_at) / Fold change /veh TMEM51 (11727254_a_at) / RFU PIWIL2 (11732686_x_at) / Fold change /veh PIWIL2 (11732686_x_at) / RFU ORM1 (11744905_x_at) / Fold change /veh ORM1 (11744905_x_at) / RFU CCDC152 (11743942_at) / Fold change /veh CCDC152 (11743942_at) / RFU ECM1 (11717891_a_at) / Fold change /veh ECM1 (11717891_a_at) / RFU IL23R (11748794_a_at) / Fold change /veh IL23R (11748794_a_at) / RFU TNFAIP8L3 (11732012_x_at) / Fold change /veh TNFAIP8L3 (11732012_x_at) / RFU MBOAT4 (11741988_at) / Fold change /veh MBOAT4 (11741988_at) / RFU 11764193_at / Fold change /veh 11764193_at / RFU TMEM53 (11763286_at) / Fold change /veh TMEM53 (11763286_at) / RFU MAGEB2 (11727129_at) / Fold change /veh MAGEB2 (11727129_at) / RFU TMEM200A (11744735_a_at) / Fold change /veh TMEM200A (11744735_a_at) / RFU CCDC152 (11751479_a_at) / Fold change /veh CCDC152 (11751479_a_at) / RFU FAM211A (11726209_a_at) / Fold change /veh FAM211A (11726209_a_at) / RFU RGS16 (11746705_a_at) / Fold change /veh RGS16 (11746705_a_at) / RFU VCAN (11755009_s_at) / Fold change /veh VCAN (11755009_s_at) / RFU RHOB (11743442_s_at) / Fold change /veh RHOB (11743442_s_at) / RFU RGS16 (11720943_a_at) / Fold change /veh RGS16 (11720943_a_at) / RFU RGS16 (11720944_at) / Fold change /veh RGS16 (11720944_at) / RFU, VPS4B / Fold change vs veh, VPS4B / RFU, CREB1 / Fold change vs veh, CREB1 / RFU, DNAJC13 / Fold change vs veh, DNAJC13 / RFU, GNAQ / Fold change vs veh, GNAQ / RFU, CDK5R1 / Fold change vs veh, CDK5R1 / RFU, ZRANB3 / Fold change vs veh, ZRANB3 / RFU, CUL4A / Fold change vs veh, CUL4A / RFU, CCNY / Fold change vs veh, CCNY / RFU, UFL1 / Fold change vs veh, UFL1 / RFU, COG3 / Fold change vs veh, COG3 / RFU, DIAPH2 / Fold change vs veh, DIAPH2 / RFU, SKA2 / Fold change vs veh, SKA2 / RFU, AFF3 / Fold change vs veh, AFF3 / RFU, LMF1 / Fold change vs veh, LMF1 / RFU, IPO11 / Fold change vs veh, IPO11 / RFU, DFFB / Fold change vs veh, DFFB / RFU, FOXP1 / Fold change vs veh, FOXP1 / RFU, CARD8 / Fold change vs veh, CARD8 / RFU, STRN3 / Fold change vs veh, STRN3 / RFU, ADK / Fold change vs veh, ADK / RFU, RASSF2 / Fold change vs veh, RASSF2 / RFU, WIPF1 / Fold change vs veh, WIPF1 / RFU, LARP1B / Fold change vs veh, LARP1B / RFU, RASA1 / Fold change vs veh, RASA1 / RFU, RB1 / Fold change vs veh, RB1 / RFU, PPFIA1 / Fold change vs veh, PPFIA1 / RFU, MAT2A / Fold change vs veh, MAT2A / RFU, CCT5 / Fold change vs veh, CCT5 / RFU, WDR92 / Fold change vs veh, WDR92 / RFU, CUX1 / Fold change vs veh, CUX1 / RFU, TTC7A / Fold change vs veh, TTC7A / RFU, TMEM135 / Fold change vs veh, TMEM135 / RFU, DEPTOR / Fold change vs veh, DEPTOR / RFU, CPM / Fold change vs veh, CPM / RFU, DNAJB6 / Fold change vs veh, DNAJB6 / RFU, CACNA2D3 / Fold change vs veh, CACNA2D3 / RFU, DTX4 / Fold change vs veh, DTX4 / RFU, TFCP2 / Fold change vs veh, TFCP2 / RFU, GMCL1 /// GMCL1P1 / Fold change vs veh, GMCL1 /// GMCL1P1 / RFU, AEBP2 / Fold change vs veh, AEBP2 / RFU, SNHG1 /// SNORD22 /// SNORD25 /// SNORD26 /// SNORD27 /// SNORD28 /// SNORD29 /// SNORD31 / Fold change vs veh, SNHG1 /// SNORD22 /// SNORD25 /// SNORD26 /// SNORD27 /// SNORD28 /// SNORD29 /// SNORD31 / Fold change (Aza/veh), C12orf56 (ProbeSet 11735607_a_at) / Fold change (ACY-1035/veh), C12orf56 (ProbeSet 11735607_a_at) / Fold change (Aza/veh), FGFR1OP (ProbeSet 11751329_s_at) / Fold change (ACY-1035/veh), FGFR1OP (ProbeSet 11751329_s_at) / Fold change (Aza/veh), VPS36 (ProbeSet 11739960_a_at) / Fold change (ACY-1035/veh), VPS36 (ProbeSet 11739960_a_at) / RFU SYPL1 (11715823_x_at) / Fold change /veh SYPL1 (11715823_x_at) / RFU IGFBP7 (11715501_s_at) / Fold change /veh IGFBP7 (11715501_s_at) / RFU REEP3 (11722064_at) / Fold change /veh REEP3 (11722064_at) / RFU IGLL1 (11728026_x_at) / Fold change /veh IGLL1 (11728026_x_at): dose or concentration left out as unconfirmed
Conditions: MV-4-11 cells, 48 hours

For `Nc1ccc(-c2cccs2)cc1NC(=O)c1ccc2c(c1)cc(C1CC1)n2CCN1CCOCC1` [ACY-1035], the “Fold change /veh SYPL1 (11715823_x_at)” value was 0.54.
